Numbers after ± are expanded uncertainties.
What was measured:
[1] = excess molar enthalpy (molar enthalpy of mixing); xn = mol fraction of the nth substance listed; conditions: 308.15 K, 101 kPa, Liquid, Power-compensation calorimetry
[2] = molar heat capacity at constant pressure; xn = mol fraction of the nth substance listed; conditions: 101 kPa, Liquid, Small sample (50 mg) DSC

Cc1ccccc1Cl [2-chlorotoluene] + C1CCOCC1
[1]
Conditions	excess molar enthalpy [kcal/mol]
x1 = 0.0994	-0.0166 ± 0.000311
x1 = 0.1367	-0.0226 ± 0.000359
x1 = 0.1982	-0.0304 ± 0.000478
x1 = 0.2467	-0.0368 ± 0.000478
x1 = 0.3018	-0.0425 ± 0.000478
x1 = 0.3537	-0.0459 ± 0.000478
x1 = 0.3986	-0.04876 ± 0.000478
x1 = 0.4367	-0.05115 ± 0.000478
x1 = 0.4825	-0.0526 ± 0.000717
x1 = 0.5267	-0.0526 ± 0.000717
x1 = 0.5894	-0.05115 ± 0.000478
x1 = 0.6276	-0.05043 ± 0.000478
x1 = 0.6934	-0.0457 ± 0.000478
x1 = 0.7368	-0.0418 ± 0.000478
x1 = 0.7864	-0.037 ± 0.000478

molar heat capacity at constant pressure [J/K/mol], [2]
Conditions	298.15 K	303.15 K	308.15 K
x1 = 0.0897	152.82 ± 2.4	154.4 ± 2.4	156.2 ± 2.4
x1 = 0.1165	153.77 ± 2.4	155.35 ± 2.4	157.14 ± 2.4
x1 = 0.1429	154.71 ± 2.4	156.28 ± 2.4	158.07 ± 2.5
x1 = 0.1929	156.46 ± 2.4	158.04 ± 2.5	159.8 ± 2.5
x1 = 0.2376	158.01 ± 2.5	159.59 ± 2.5	161.34 ± 2.5
x1 = 0.2892	159.77 ± 2.5	161.35 ± 2.5	163.09 ± 2.5
x1 = 0.3218	160.85 ± 2.5	162.44 ± 2.5	164.17 ± 2.5
x1 = 0.3519	161.84 ± 2.5	163.43 ± 2.5	165.15 ± 2.6
x1 = 0.4019	163.44 ± 2.5	165.03 ± 2.6	166.75 ± 2.6
x1 = 0.4427	164.71 ± 2.5	166.31 ± 2.6	168.01 ± 2.6
x1 = 0.4817	165.88 ± 2.6	167.49 ± 2.6	169.19 ± 2.6
x1 = 0.5216	167.05 ± 2.6	168.66 ± 2.6	170.35 ± 2.6
x1 = 0.5549	168 ± 2.6	169.62 ± 2.6	171.3 ± 2.6
x1 = 0.5936	169.07 ± 2.6	170.69 ± 2.6	172.36 ± 2.7
x1 = 0.6215	169.81 ± 2.6	171.44 ± 2.7	173.11 ± 2.7
x1 = 0.6518	170.6 ± 2.6	172.23 ± 2.7	173.9 ± 2.7
x1 = 0.6902	171.57 ± 2.7	173.21 ± 2.7	174.87 ± 2.7
x1 = 0.7205	172.31 ± 2.7	173.96 ± 2.7	175.62 ± 2.7
x1 = 0.7515	173.04 ± 2.7	174.7 ± 2.7	176.36 ± 2.7
x1 = 0.7931	173.99 ± 2.7	175.66 ± 2.7	177.32 ± 2.8
x1 = 0.8156	174.49 ± 2.7	176.17 ± 2.7	177.83 ± 2.8
x1 = 0.8472	175.18 ± 2.7	176.87 ± 2.7	178.52 ± 2.8
x1 = 0.8831	175.93 ± 2.7	177.63 ± 2.8	179.3 ± 2.8
x1 = 0.9146	176.56 ± 2.7	178.29 ± 2.8	179.96 ± 2.8

Cc1ccccc1Cl [2-chlorotoluene] + C1COCCO1
[1]
Conditions	excess molar enthalpy [kcal/mol]
x1 = 0.0998	0.0387 ± 0.000478
x1 = 0.1643	0.0583 ± 0.000717
x1 = 0.2095	0.0676 ± 0.000717
x1 = 0.2498	0.07529 ± 0.000717
x1 = 0.3012	0.0827 ± 0.000956
x1 = 0.3567	0.0872 ± 0.000956
x1 = 0.4098	0.088 ± 0.000956
x1 = 0.4597	0.0877 ± 0.000956
x1 = 0.5088	0.0851 ± 0.000956
x1 = 0.5563	0.08078 ± 0.000717
x1 = 0.6019	0.07529 ± 0.000717
x1 = 0.6532	0.0672 ± 0.000717
x1 = 0.7067	0.0588 ± 0.000717
x1 = 0.7538	0.04924 ± 0.000478
x1 = 0.8093	0.0382 ± 0.000478
x1 = 0.8498	0.0299 ± 0.000478
x1 = 0.8932	0.0209 ± 0.000359
x1 = 0.9265	0.0144 ± 0.000311

molar heat capacity at constant pressure [J/K/mol], [2]
Conditions	298.15 K	303.15 K	308.15 K
x1 = 0.0903	155.43 ± 2.4	156.69 ± 2.4	158.03 ± 2.5
x1 = 0.1278	156.54 ± 2.4	157.84 ± 2.5	159.2 ± 2.5
x1 = 0.1654	157.65 ± 2.4	158.98 ± 2.5	160.36 ± 2.5
x1 = 0.2006	158.69 ± 2.5	160.04 ± 2.5	161.44 ± 2.5
x1 = 0.2343	159.68 ± 2.5	161.05 ± 2.5	162.46 ± 2.5
x1 = 0.2765	160.9 ± 2.5	162.3 ± 2.5	163.73 ± 2.5
x1 = 0.3004	161.59 ± 2.5	163 ± 2.5	164.44 ± 2.5
x1 = 0.3421	162.78 ± 2.5	164.21 ± 2.5	165.66 ± 2.6
x1 = 0.3876	164.06 ± 2.5	165.52 ± 2.6	166.99 ± 2.6
x1 = 0.4002	164.41 ± 2.5	165.87 ± 2.6	167.35 ± 2.6
x1 = 0.4327	165.31 ± 2.6	166.79 ± 2.6	168.28 ± 2.6
x1 = 0.4726	166.39 ± 2.6	167.9 ± 2.6	169.41 ± 2.6
x1 = 0.5117	167.43 ± 2.6	168.97 ± 2.6	170.5 ± 2.6
x1 = 0.5401	168.17 ± 2.6	169.73 ± 2.6	171.28 ± 2.6
x1 = 0.5915	169.49 ± 2.6	171.09 ± 2.6	172.67 ± 2.7
x1 = 0.6305	170.45 ± 2.6	172.09 ± 2.7	173.7 ± 2.7
x1 = 0.6721	171.46 ± 2.7	173.13 ± 2.7	174.77 ± 2.7
x1 = 0.7198	172.57 ± 2.7	174.28 ± 2.7	175.95 ± 2.7
x1 = 0.7401	173.03 ± 2.7	174.76 ± 2.7	176.44 ± 2.7
x1 = 0.7623	173.53 ± 2.7	175.27 ± 2.7	176.97 ± 2.7
x1 = 0.8004	174.36 ± 2.7	176.13 ± 2.7	177.84 ± 2.8
x1 = 0.8432	175.26 ± 2.7	177.05 ± 2.7	178.78 ± 2.8
x1 = 0.8856	176.11 ± 2.7	177.92 ± 2.8	179.66 ± 2.8
x1 = 0.9165	176.7 ± 2.7	178.52 ± 2.8	180.26 ± 2.8

Cc1ccccc1Cl [2-chlorotoluene] + C1COCO1
[1]
Conditions	excess molar enthalpy [kcal/mol]
x1 = 0.0945	0.0361 ± 0.000478
x1 = 0.1378	0.05043 ± 0.000478
x1 = 0.1987	0.066 ± 0.000717
x1 = 0.2396	0.07481 ± 0.000717
x1 = 0.2914	0.0841 ± 0.000956
x1 = 0.3467	0.0899 ± 0.000956
x1 = 0.3962	0.0937 ± 0.000956
x1 = 0.4532	0.0956 ± 0.000956
x1 = 0.4991	0.0939 ± 0.000956
x1 = 0.5432	0.0915 ± 0.000956
x1 = 0.5899	0.088 ± 0.000956
x1 = 0.6329	0.08198 ± 0.000717
x1 = 0.6923	0.07337 ± 0.000717
x1 = 0.7321	0.065 ± 0.000717
x1 = 0.8021	0.05043 ± 0.000478
x1 = 0.8492	0.0392 ± 0.000478
x1 = 0.8912	0.0292 ± 0.000478
x1 = 0.9319	0.0186 ± 0.000335

molar heat capacity at constant pressure [J/K/mol], [2]
Conditions	298.15 K	303.15 K	308.15 K
x1 = 0.0865	127.97 ± 2	129.15 ± 2	130.3 ± 2
x1 = 0.1145	129.85 ± 2	131.07 ± 2	132.27 ± 2
x1 = 0.1386	131.45 ± 2	132.71 ± 2.1	133.94 ± 2.1
x1 = 0.1829	134.37 ± 2.1	135.68 ± 2.1	136.97 ± 2.1
x1 = 0.2145	136.42 ± 2.1	137.77 ± 2.1	139.09 ± 2.1
x1 = 0.2573	139.17 ± 2.2	140.56 ± 2.2	141.91 ± 2.2
x1 = 0.2965	141.65 ± 2.2	143.06 ± 2.2	144.45 ± 2.2
x1 = 0.3217	143.22 ± 2.2	144.65 ± 2.2	146.05 ± 2.3
x1 = 0.3506	144.99 ± 2.2	146.45 ± 2.3	147.87 ± 2.3
x1 = 0.3902	147.38 ± 2.3	148.87 ± 2.3	150.31 ± 2.3
x1 = 0.4216	149.24 ± 2.3	150.75 ± 2.3	152.22 ± 2.4
x1 = 0.4654	151.78 ± 2.4	153.32 ± 2.4	154.82 ± 2.4
x1 = 0.5007	153.78 ± 2.4	155.35 ± 2.4	156.88 ± 2.4
x1 = 0.5418	156.06 ± 2.4	157.66 ± 2.4	159.23 ± 2.5
x1 = 0.5905	158.68 ± 2.5	160.33 ± 2.5	161.94 ± 2.5
x1 = 0.6218	160.32 ± 2.5	162.01 ± 2.5	163.64 ± 2.5
x1 = 0.663	162.44 ± 2.5	164.17 ± 2.5	165.83 ± 2.6
x1 = 0.6902	163.81 ± 2.5	165.56 ± 2.6	167.25 ± 2.6
x1 = 0.7118	164.88 ± 2.5	166.65 ± 2.6	168.36 ± 2.6
x1 = 0.7534	166.91 ± 2.6	168.72 ± 2.6	170.46 ± 2.6
x1 = 0.7927	168.78 ± 2.6	170.62 ± 2.6	172.38 ± 2.7
x1 = 0.8426	171.11 ± 2.6	172.98 ± 2.7	174.76 ± 2.7
x1 = 0.8914	173.35 ± 2.7	175.22 ± 2.7	177 ± 2.7
x1 = 0.9206	174.66 ± 2.7	176.53 ± 2.7	178.31 ± 2.8

— the NIST ThermoML archive (doi:10.1021/je400722h)
